Several values for one entry are separate records, joined by “and”; a condition that tells them apart may be missing. Identical values can stand only once.
How the values were obtained:
[1] = test system: human hepatocellular carcinoma cells HepG2; test: CellTiter-Glo cell viability, 72 hours; type: cell-based; details: duplicate wells
Source text: (§1) A first exemplary embodiment is shown a detection of the angstrom silver on a proliferation influence of human non-small cell lung cancer cells A549 and human hepatocellular carcinoma cells HepG2.
(§2) Reagents and consumables shown below: 1. HepG2, provided by HD Biosciences (Shanghai) Co., Ltd., and passed a mycoplasma detection; 2, F 12K culture medium, American Gibco, Art. No.: 21127-022; 3. EMEM culture medium, American ATCC, Art. No.: 30-2003; 4. Fetal bovine serum (FBS), American Hyclone, Art. No.: CH30160.03; 5. Penicillin-streptomycin liquid, American Invitrogen, Art. No.: CH15140-122; 6. DG-5 (25 Ang) and DG-5 solvents, DG-6 (25 Ang) and DG-6 solvents respectively provided by Shenzhen AMCAN Medical Biotechnology Limited; 7. […] DMSO, American Sigma, Art. No.: D4540; 9. 96-well cell culture plate, American Corning, Art. No.: 3610; 10. CellTiter-Glo Luminescent Cell Viability Assay, American Promega, Art. No.: G7571; 11. Plate reader, American Perkin Elmer, EnVision Multilabel Plate Reader.
(§3) Cell culture medium: 1. A549 culture medium: including 10% fetal bovine serum and F 12K culture medium with 100 U penicillin and 100 μg/mL streptomycin; 2. HepG2 culture medium: including 10% fetal bovine serum and EMEM culture medium with 100 U penicillin and 100 μg/mL streptomycin.
(§4) 3. Only before starting an experiment, in the sterile condition, the prepared dg-5 gradient concentration solution is diluted 2 times by full cell culture medium. At this time, the gradient concentration of a compound to be measured includes 150 ppm, 15 ppm, 1.5 ppm, 0.15 ppm and 0.015 ppm, which is a 2-by-compound solution to be used to treat cells.
(§5) 4. Only before starting the experiment, in the sterile condition, the prepared dg-5 gradient concentration solution was diluted 100 times by the full cell culture medium. At this time, the gradient concentration of the compound to be measured includes 2 μM, 200 nM, 20 nM, 2 nM and 0.2 nM, which is a 2-by-compound solution to be used to treat cells.
(§6) 1. The cell is inoculated in a 96-well cell culture plate the day before the treatment of the compound, while an inoculation density is shown in the experimental design above, and an inoculation volume was 100 μL per hole.
(§7) 2. The next day, the prepared 2-by-compound solution is added to the 96-well cell culture plate according to an arrangement diagram of the compound, and each hole is added to 100 μL.
(§8) 3. Gently oscillating the 96-well cell culture plate and placing it in a 37° C. incubator to continue cultivating for 72 hours.
(§9) 4. After reaching a designated incubation time, a prepared reagent is added to the 96-well cell culture plate according to a CellTiterGlo's reagent specification, and then it is fully blended under a room temperature, finally avoid light incubation for 10 minutes.
(§10) 5. Placing the 96-well cell culture plate in a plate reader to analyze it, and setting it to read chemical luminescence and record data.
(§11) Readout in each hole needs to be converted to a cell viability. The cell viability can be calculated by the following formula: […]

[2] = test system: human non-small cell lung cancer cells A549; test: CellTiter-Glo cell viability, 72 hours; type: cell-based; details: duplicate wells
Source text: as §1, §2, §3, §4, §5, §6, §7, §8, §9, §10, §11

[3] = test system: tumor tissue cell, Liver cancer; test: 3D drug susceptibility detection (three-dimensional co-culture system), liver cancer patient; type: cell-based, human; details: person
Source text: A second exemplary embodiment is shown below. • 3D drug susceptibility detection result

[4] = test system: tumor tissue cell, Lung Tumor; test: 3D drug susceptibility detection (three-dimensional co-culture system), lung tumor patient; type: cell-based, human; details: serial No. 0018
Source text: A fourth exemplary embodiment is shown below. • 3D drug susceptibility detection result

tumor tissue cell, NSCLC = test: 3D drug susceptibility detection (three-dimensional co-culture system), NSCLC patient; type: cell-based, human
Source text: A third exemplary embodiment is shown below. • 3D drug susceptibility detection result

| SMILES | drug efficacy, 3D drug susceptibility detection [3] | drug efficacy, 3D drug susceptibility detection [4] | drug efficacy, 3D drug susceptibility detection (tumor tissue cell, NSCLC; serial No. 0015) | other results |
| --- | --- | --- | --- | --- |
| CN[C@@H]1C[C@H]2O[C@@](C)([C@@H]1OC)n1c3ccccc3c3c4c(c5c6ccccc6n2c5c31)C(=O)NC4 [STSP] | – | – | – | Percentage of cell growth ([1]; HepG2, 0.1 nM): 109.0% and 103.4%; Percentage of cell growth ([1]; HepG2, 1 nM): 88.4% and 86.2%; Percentage of cell growth ([1]; HepG2, 100 nM): 17.5% and 22.2%; Percentage of cell growth ([1]; HepG2, 1000 nM): 9.7% and 11.2%; Percentage of cell growth ([2]; A549, 0.1 nM): 124.6% and 126.9%; Percentage of cell growth ([2]; A549, 1 nM): 99.8% and 99.2%; Percentage of cell growth ([2]; A549, 10 nM): 68.8% and 68.5%; Percentage of cell growth ([2]; A549, 100 nM): 28.5% |
| CNC(=O)c1cc(Oc2ccc(NC(=O)Nc3ccc(Cl)c(C(F)(F)F)c3)cc2)ccn1 [sorafenib] | Ineffective | – | – | – |
| N.N.O=C([O-])C1(C(=O)[O-])CCC1.[Pt+2] [carboplatin] | Ineffective | – | – | – |
| Nc1nc2[nH]cc(CCc3ccc(C(=O)N[C@@H](CCC(=O)O)C(=O)O)cc3)c2c(=O)[nH]1 [pemetrexed] | Ineffective | worst group of efficacy | worst group of efficacy | drug efficacy, 3D drug susceptibility detection (tumor tissue cell, NSCLC; serial No. 0015, listed as permetrexed): very poor efficacy |
| C=CC(=O)Nc1cc(Nc2nccc(-c3cn(C)c4ccccc34)n2)c(OC)cc1N(C)CCN(C)C [AZD9291] | – | best group of efficacy | best group of efficacy | – |
| COc1cc2ncnc(Nc3ccc(F)c(Cl)c3)c2cc1OCCCN1CCOCC1 [gefitinib] | – | worst group of efficacy | worst group of efficacy | – |
| CC(=O)O[C@H]1C(=O)[C@@]2(C)[C@H]([C@H](OC(=O)c3ccccc3)[C@]3(O)C[C@H](OC(=O)[C@H](O)[C@@H](NC(=O)c4ccccc4)c4ccccc4)C(C)=C1C3(C)C)[C@]1(OC(C)=O)CO[C@@H]1C[C@@H]2O [paclitaxel] | second efficacy | – | – | – |
| Cc1ccc(NC(=O)c2ccc(CN3CCN(C)CC3)cc2)cc1Nc1nccc(-c2cccnc2)n1 [imatinib] | better | – | – | – |
| Nc1ccn([C@@H]2O[C@H](CO)[C@@H](O)C2(F)F)c(=O)n1 [gemcitabine] | – | – | best group of efficacy | – |
| C#Cc1cccc(Nc2ncnc3cc(OCCOC)c(OCCOC)cc23)c1 [erlotinib] | – | worst group of efficacy | worst group of efficacy | – |
| CC(=O)O[C@@]12CO[C@@H]1C[C@H](O)[C@@]1(C)C(=O)[C@H](O)C3=C(C)[C@@H](OC(=O)[C@H](O)[C@@H](NC(=O)OC(C)(C)C)c4ccccc4)C[C@@](O)([C@@H](OC(=O)c4ccccc4)[C@H]21)C3(C)C [docetaxel] | second efficacy | – | – | – |
| O=c1[nH]cc(F)c(=O)[nH]1 [5-fluorouracil] | Ineffective | worst group of efficacy | worst group of efficacy | – |
